Like-named read-outs stand apart in the source and are kept apart here.
Assays:
[1] = test system: Normal human HEPM fibroblasts; assay: Cell Mat Assay: inhibition of normal cell growth (cell mat); type: cell-based; conditions: Fibroblast, mIC50, normal cell monolayer
Protocol: (§1) Normal human HEPM fibroblasts were planted in 3.5 cm dishes at a density of 5×10^4 cells/dish in 2 ml growth medium, and incubated for 3-5 d to achieve confluence. Medium was aspirated from each dish and the indicator tumor cells, T24-BAG4 human bladder carcinoma cells expressing an activated H-ras gene, were planted on top of the fibroblast monolayer at a density of 2×10^3 cells/dish in 2 ml growth medium, and allowed to attach overnight. Compound-induced colony inhibition was assayed by addition of serial dilutions of compound directly to the growth medium 24 h after tumor cell planting, and incubating cells for an additional 14 d to allow colony formation. Assays were terminated by rinsing monolayers twice with phosphate-buffered saline (PBS), fixing the monolayers with a 1% glutaraldehyde solution in PBS, then visualizing tumor cells by staining with X-Gal (Price, J., et al., Lineage analysis in the vertebrate nervous system by retrovirus-mediated gene transfer, Proc. Natl. Acad. Sci. 84, 156-160(1987)). In the colony inhibition assay, compounds were evaluated on the basis of two IC50 values: the concentration of drug required to prevent the increase in tumor cell number by 50% (tIC50) and the concentration of drug required to reduce the density of cells comprising the cell mat by 50% (mIC50). Both IC50 values were obtained by determining the density of tumor cells and mat cells by visual inspection and enumeration of cells per colony and the number of colonies under the microscope. The therapeutic index of the compound was quantitatively expressed as the ratio of mIC50 /tIC50, with values greater than one indicative of tumor target specificity.

[2] = test system: T24-BAG4 human bladder carcinoma cells; assay: Cell Mat Assay: inhibition of tumor cell growth; type: cell-based; conditions: 336 h, tIC50, 14 d colony formation
Protocol: as §1

[3] = target: T1, farnesyl protein transferase (FPT) (Rattus norvegicus, UniProt Q02293+Q04631); assay: In vitro enzyme assay: inhibition of farnesyl protein transferase (FPT), Ras-CVLS farnesylation; type: biochemical
T1 construct: were partially purified from rat brain by ammonium sulfate fractionation; from tissue; host or cells: rat brain
Source text: (§2) 1. In vitro enzyme assays: Inhibition of farnesyl protein transferase and geranylgeranyl protein transferase.
Both farnesyl protein transferase (FPT) and geranylgeranyl protein transferase (GGPT) I were partially purified from rat brain by ammonium sulfate fractionation followed by Q-Sepharose (Pharmacia, Inc.) anion exchange chromatography essentially as described by Yokoyama et al (Yokoyama, K., et al., (1991), A protein geranylgeranyltransferase from bovine brain: Implications for protein prenylation specificity, Proc. Natl. Acad. Sci USA 88: 5302-5306, the disclosure of which is incorporated herein by reference thereto). Human farnesyl protein transferase was also expressed in E. coli, using cDNA clones encoding both the a and b subunits. The methods used were similar to those published (Omer, C. et al., (1993), Characterization of recombinant human farnesyl protein transferase: Cloning, expression, farnesyl diphosphate binding, and functional homology with yeast prenyl-protein transferases, Biochemistry 32:5167-5176). Human farnesyl protein transferase was partially-purified from the soluble protein fraction of E. coli as described above. the tricyclic farnesyl protein transferase inhibitors disclosed herein inhibited both human and rat enzyme with similar potencies. Two forms of val^12 -Ha-Ras protein were prepared as substrates for these enzymes, differing in their carboxy terminal sequence. One form terminated in cysteine-valine-leucine-serine (Ras-CVLS) the other in cystein-valine-leucine-leucine (Ras-CVLL). Ras-CVLS is a substrate for the farnesyl protein transferase while Ras-CVLL is a substrate for geranylgeranyl protein transferase I. The cDNAs encoding these proteins were constructed so that the proteins contain an amino-terminal extension of 6 histidine residues. Both proteins were expressed in Escherichia coli and purified using metal chelate affinity chromatography. The radiolabelled isoprenyl pyrophosphate substrates, [^3 H]farnesyl pyrophosphate and [^3 H]geranylgeranyl pyrophosphate, were purchased from DuPont/New England Nuclear.
Several methods for measuring farnesyl protein transferase activity have been described (Reiss et al 1990, Cell 62: 81; Schaber et al 1990, J. Biol. Chem. 265: 14701; Manne et al 1990, PNAS 87: 7541; and Barbacid & Manne 1993, U.S. Pat. No. 5,185,248). The activity was assayed by measuring the transfer of [^3 H]farnesyl from [^3 H]farnesyl pyrophosphate to Ras-CVLS using conditions similar to those described by Reiss et al. 1990 (Cell 62: 81) The reaction mixture contained 40 mM Hepes, pH 7.5; 20 mM magnesium chloride; 5 mM dithiothreitol; 0.25 μM [^3 H]farnesyl pyrophosphate; […] Q-Sepharose-purified farnesyl protein transferase; the indicated concentration of tricyclic compound or dimethylsulfoxide (DMSO) vehicle control (5% DMSO final); and […] Ras-CVLS in a total volume of […]. The reaction was allowed to proceed for 30 minutes at room temperature and then stopped with 0.5 ml of 4% sodium dodecyl sulfate (SDS) followed by 0.5 ml of cold 30% trichloracetic acid (TCA). Samples were allowed to sit on ice for 45 minutes and precipitated Ras protein was then collected on GF/C filter paper mats using a Brandel cell harvester. Filter mats were washed once with 6% TCA, 2% SDS and radioactivity was measured in a Wallac 1204 Betaplate BS liquid scintillation counter. Percent inhibition was calculated relative to the DMSO vehicle control.

[4] = target: T2, geranylgeranyl protein transferase (GGPT) I (Rattus norvegicus, UniProt P53610+Q04631); assay: In vitro enzyme assay: inhibition of geranylgeranyl protein transferase (GGPT) I, Ras-CVLL as acceptor; type: biochemical
T2 construct: were partially purified from rat brain by ammonium sulfate fractionation; from tissue; host or cells: rat brain
Source text: as §2
Both farnesyl protein transferase (FPT) and geranylgeranyl protein transferase (GGPT) I were partially purified from rat brain by ammonium sulfate fractionation followed by Q-Sepharose (Pharmacia, Inc.) anion exchange chromatography essentially as described by Yokoyama et al (Yokoyama, K., et al., (1991), A protein geranylgeranyltransferase from bovine brain: Implications for protein prenylation specificity, Proc. Natl. Acad. Sci USA 88: 5302-5306, the disclosure of which is incorporated herein by reference thereto). Human farnesyl protein transferase was also expressed in E. coli, using cDNA clones encoding both the a and b subunits. The methods used were similar to those published (Omer, C. et al., (1993), Characterization of recombinant human farnesyl protein transferase: Cloning, expression, farnesyl diphosphate binding, and functional homology with yeast prenyl-protein transferases, Biochemistry 32:5167-5176). Human farnesyl protein transferase was partially-purified from the soluble protein fraction of E. coli as described above. the tricyclic farnesyl protein transferase inhibitors disclosed herein inhibited both human and rat enzyme with similar potencies. […]

[5] = test system: Ras-CVLS processing in COS monkey kidney cells; assay: Cell-Based Assay: Ras-CVLS processing in transfected COS monkey kidney cells; conditions: Primates, read-out: COS IC50 (inhibition of Ras-CVLS processing)
Source text: 2. Cell-Based Assay: Transient expression of val^12 -Ha-Ras-CVLS and val^12 -Ha-Ras-CVLL in COS monkey kidney cells: Effect of farnesyl protein transferase inhibitors on Ras processing and on disordered cell growth induced by transforming Ras.
COS monkey kidney cells were transfected by electroporation with the plasmid pSV-SPORT (Gibco/BRL) containing a cDNA insert encoding either Ras-CVLS or Ras-CVLL, leading to transient overexpression of a Ras substrate for either farnesyl protein transferase or geranylgeranyl protein transferase I, respectively (see above). […]
Membranes were blocked by incubation overnight at 4° C. in PBS containing 2.5% dried milk and 0.5% Tween-20 and then incubated with a Ras-specific monoclonal antibody, Y13-259 (Furth, M. E., et al., (1982), Monoclonal antibodies to the p21 products of the transforming gene of Harvey murine sarcome virus and of the cellular ras gene family, J. Virol. 43: 294-304), in PBS containing 1% fetal calf serum for one hour at room temperature. […] The presence of processed and unprocessed Ras-CVLS or Ras-CVLL was detected using a colorimetric peroxidase reagent (4-chloro-1-naphthol) as described by the manufacturer (Bio-Rad).

[6] = Table 3, comparison of FPT and GGPT inhibition, read-out: ENZYME INHIBITION FPT IC50

IC50 [2] [µM] | IC50 ([3]; Table 2, read-out: FPT IC50) [µM] | IC50 [3, 6] [µM] | IC50 ([4]; Table 3) [µM] | IC50 ([4]; Table 3, unit printed in the cell) [µM] | SMILES | IC50 [1] [µM] | IC50 [5] [µM]
12.5 | < 0.44 | 0.47 | < 13 |  | O=S(=O)(c1cccs1)N1CCC/C(=C2\c3ccc(Cl)cc3CCc3cccnc32)C1 [Compound E-1G] | > 25 | 
< 3.1 | 0.71 | 0.71 |  | 7.4 | O=S(=O)(c1ccccc1)N1CCC/C(=C2\c3ccc(Cl)cc3CCc3cccnc32)C1 [Compound E-2E] | > 50 | 2.5
 | 0.59 |  |  |  | O=S(=O)(c1ccccc1)N1CC/C(=C2\c3ccc(Cl)cc3CCc3cccnc32)C1 [Compound E-2] |  | > 5

Source: patent US5684013A, “Tricyclic compounds useful for inhibition of g-protein function and for treatment of proliferative diseases” (Schering Corporation, priority 1995, dated 1997)
